Test results reported in PMC5610309, “In vivo target exploration of apidaecin based on Acquired Resistance induced by Gene Overexpression (ARGO assay)” (Scientific Reports, 2017).
Where no end group is shown, it is not given here. [ ]: non-standard residue; d: D form.

What was measured:
[1] = test system: lacZ expression in PURE system (PrfA-dependent termination); assay: Inhibitory assay using the in vitro transcription-translation system (PURE system); type: biochemical; details: 200 μM apidaecin; for inhibition ratio of lacZ (UAG) expression: PrfB omitted, 37 °C, 3 h, immunoblot
Protocol: The PCR products were purified by agarose gel extraction and used for second PCR to add the T7 promoter sequence using a forward primer 2, […], and aforementioned reverse primers. The amplified DNA was treated with chloroform/phenol/isoamyl alcohol, concentrated by ethanol precipitation, and diluted to 100 ng/μl using RNase free water. The DNA solution was used for in vitro transcription-translation reaction using PUREfrex ver 1.0 (GeneFrontier Corp., Chiba, Japan). The solution I, II, and III provided by the kit protocol was combined with the apidaecin solution to contain 0 to 200 μM apidaecin. […] Ten microliter solution I, 1 μL solution II, 1 μL solution III, 0.1 μL 6 μM T7 RNA polymerase, 0.5 μL 4 or 0.8 μM RF1, 0.5 μL 4 μM RF3, 0.5 μL 40 μM RRF, and 0–4 μL 1 mM apidaecin were combined and diluted to 19 μL with RNAse free water. The mixture was incubated at room temperature for 15 min, and 1 μL template DNA (LacZ [UAG]) was added. Then the mixture was further incubated at 37 °C from 3 h. Then 1 μL reaction mixture was used for immnoblot analysis.

[2] = test system: peptide chain release factor 1 (PrfA); assay: ARGO assay, apidaecin resistance of PrfA-overexpressing E. coli (ASKA clone); type: cell-based, Escherichia coli; details: 6.25 μM apidaecin; E. coli JM109 ASKA clone, IPTG-induced; 30 °C, 18 h; OD595; three trials
Protocol: (§4) The recombinant E. coli strain JM109 harboring pCA24N derivatives were grown on 2 mL LB medium containing 30 µg/mL chloramphenicol in a test tube, with reciprocal shaking at 175 rpm at 37 °C for 18 h. A total of 80 μL culture medium was transferred into fresh 2 mL LB medium containing 30 µg/mL chloramphenicol and different concentrations of IPTG (see Supplementary Information for detail), and further incubated at 37 °C with until the OD at 600 nm reached 0.4. The pre-culture was diluted 10^5 times with PB medium containing 30 µg/mL chloramphenicol so that the initial cell density was approximately 1000 colony forming units/mL. Then a 50 µL aliquot was combined with a 50 µL mixture of apidaecin and IPTG (final concentration of apidaecin was 6.25 µM). As a control, 50 µL IPTG and 50 µL sterilized water were added, respectively. The cells were cultivated in 96-well plates using a microplate shaker (BioShaker M-BR-024 Taitec, Shizuoka, Japan) with shaking at 1200 rpm at 30 °C for 18 h. […] Cell growth in a 96-well plate was optically measured using a microplate reader (iMark Microplate Absorbance Reader, Bio-rad) at a wavelength of 595 nm. The degree of resistance against apidaecin was defined as the OD obtained with the addition of IPTG and apidaecin divided by the OD with the addition of IPTG only.1 Degreeofresistance=ODwithapidaecinandIPTG/ODwithIPTG […]

E. coli [3] = assay: Growth of E. coli in 96-well plate culture with antimicrobial agent; type: cell-based, Escherichia coli; details: 500 μM
Protocol: E. coli were grown on 2 mL LB medium in a test tube containing 10 g/L trypton, 5 g/L Bacto yeast extract, and 10 g/L sodium chloride, with reciprocal shaking at 175 rpm at 30 °C for 14 h. A total of 20 μL culture medium was transferred into 2 mL fresh LB medium and incubated at 30 °C until the OD at 600 nm reached 0.2.
The cells from Procedure A were washed with 2 mL PB medium containing 10 g/L trypton and 9 g/L sodium chloride, and re-suspended in 1 mL PB medium. A total of 80 μL medium was combined with 20 μL antimicrobial agents, followed by incubation in a 96-well plate at 30 °C for 4 h with shaking at 1200 rpm.
(§1) The 96-well plate culture was started as well as Procedure B with a modification that the cells were resuspended in 1 mL PB medium containing 100 μg/ml 5-bromo-4-chloro-3-indolyl-β-D-galactopyranoside (X-gal). After 60 min, 0.1 mM IPTG was added and the plate was further incubated for 120 min. The OD of the culture in the test tube was measured using a UV-VIS spectrophotometer (Genesys20, Thermo Scientific, Waltham, MA, USA) at 600 nm, and OD in the 96-well plate was monitored at 595 nm using an iMark Microplate Absorbance Reader (Biorad, Hercules, CA, USA).

[4] = test system: lacZ mRNA transcription in E. coli MG1655; assay: Quantification of lacZ mRNA by real-time reverse transcriptase-PCR; type: cell-based, Escherichia coli; details: 500 μM and 0.1 mM IPTG; quantitative real-time PCR
Protocol: (§2) The 96-well plate culture was started following Procedure B. After 60 min, 0.1 mM IPTG was added and the plate was incubated for an additional 60 min.
The E. coli strain MG1655 from Procedure C were harvested by centrifugation at 4 °C, and total RNA was extracted using Isogen (Nippongene, Toyama, Japan) according to the manufacturer’s instructions. The reverse transcriptase reaction was performed using PrimeScript RT-PCR Kit (Takara, Tokyo, Japan) based on the provided protocol. The lacZ fragment was amplified using a pair of primers: lacZ_RTf1, […] and lacZ_RTr1, with […] used as the standard. The standard curve was made in the range of 10^−3 to 10^−7 ng DNA/μL. A total of 6 μL reverse transcriptase reaction product was combined with 10 μL TaqMan Gene Expression Master Mix (Applied Biosystems, Foster City, CA, USA), 1 μL lacZ_RTf1, 1 μL lacZ_RTr1, and 2 μL TaqMan probe lacZ_2116, […], which was bound to fluorescein as a reporter and NFQ-MGB as a quencher. The samples were prepared in triplicate and transferred to a MicroAmp Fast Optical 48-well Reaction Plate (Applied Biosystems) and sealed with a MicroAmp Optical 48-well Adhesive Film. The plate was centrifuged at 1,970 g for 10 min at 4 °C. Real-time PCR (qPCR) was performed using the StepOne real-time PCR system (Applied Biosystems). […]

[5] = test system: lacZ expression in MG1655(lacZ-UAA), MG1655(lacZ-UGA), MG1655(lacZ-UAG); assay: In vivo inhibitory assay of lacZ expression with different stop codons (immunoblot); type: cell-based, Escherichia coli; details: 250 and 500 μM apidaecin
Protocol: (§3) The E. coli strain MG1655 from Procedure C were harvested and suspended in lysis buffer containing 50 mM sodium phosphate (pH 7.0), 10 mM imidazol, and 300 mM NaCl. The OD was normalized using lysis buffer, after which the crude extract was prepared using sonication on ice 5 s × 5 times. Anti-β-galactosidase antibody (Biotin) ab6645 was purchased from abcam (Cambridge, UK) and used at a 10^5-fold dilution. Immun-Star Goat Anti-Rabbit (GAR)-HRP Conjugate (Biorad) was used as the secondary antibody. Bands were detected using the ECL Select Western Blotting Detection Reagent (GE Healthcare, Little Chalfont, UK) and were recorded on ChemiDox XRS (Biorad). Band density was quantified using ImageJ software.
The C-terminal region of the lacZ gene in E. coli chromosomal DNA was replaced with three DNA fragments containing three stop codons (Fig. S4). The DNA fragments including a flippase recognition target (FRT) cassette with a kanamycin-resistant gene, and the C-terminal sequence of the lacZ gene with three stop codons, were amplified from pKD13 using three forward primers: […], […], and […] (stop codons are underlined), and a reverse primer: […]. The template DNA in the PCR products was removed by DpnI treatment. […] Ampicilline-sensitive colonies were chosen and recombination in their chromosomal DNA was evaluated by colony PCR and sequencing. […]

PrfB = assay: ARGO assay, apidaecin resistance of PrfB-overexpressing E. coli (ASKA clone); type: cell-based, Escherichia coli; details: 6.25 μM apidaecin; E. coli JM109 ASKA clone, IPTG-induced; 30 °C, 18 h; OD595
Protocol: as §4

[6] = test system: lacZ reporter gene expression in E. coli MG1655; assay: Inhibition assay of LacZ expression (X-gal chromogenesis); type: cell-based, Escherichia coli; details: 500 μM; E. coli treated 1 h, then IPTG; ΔOD595 with and without X-gal; three trials
Protocol: as §1
E. coli MG1655 cells were cultivated using Procedure D. The activity of LacZ was estimated based on the subtraction of ODs at 595 nm obtained with and without supplement of X-gal.

[7] = test system: β-galactosidase protein synthesis in E. coli MG1655; assay: Immunoblot analysis of native LacZ; type: cell-based, Escherichia coli; details: 500 μM and 0.1 mM IPTG
Protocol: as §2, §3

[8] = test system: dihydrofolate reductase (FolA); details: 125 μM trimethoprim; increasing IPTG (Fig. S2)
Protocol: as §4

E. coli [9] = details: relative to wild type apidaecin Ho +; cited from earlier work
[10] = test system: enoyl-ACP reductase (FabI); assay: ARGO assay, positive control, FabI-overexpressing E. coli; type: cell-based, Escherichia coli; details: 250 nM triclosan; increasing IPTG (Fig. S2)
Protocol: IPTG Concentration / μM IPTG Concentartion / μM
Figure S2. Acquired resistance assay induced by overexpression of target proteins. A:
concentration. Black line: no triclosan (OD Tc(-)). Gray line: 250 nM triclosan (OD Tc(+)).
overexpression. […] Black line: no
trimethoprim. Gray line: 125 μM trimethoprim. D: The degree of resistance against

Compound: GNNRPVYIPQPRPPHPRL [apidaecin, Apidaecin Ib, proline-rich AMP isolated from the hemolymph of honeybees; purchased from Bex Corp]
- inhibition efficiency of lacZ expression by stop codon ([1]; lacZ-UAA, lacZ-UGA, lacZ-UAG templates, UAG stop codon): most efficient inhibition
- inhibition ratio of lacZ (UAG) expression ([1]; low PrfA concentration (20 nM PrfA)): 45%
- inhibition ratio of lacZ (UAG) expression ([1]; standard PrfA concentration (100 nM PrfA)): 21%
- degree of resistance against apidaecin upon PrfA overexpression (OD with apidaecin and IPTG / OD with IPTG) [2]: up to 80%
- inhibition of cell growth (E. coli [3]; PB medium, 96-well plate, 30 °C, OD595, three trials): almost completely inhibited
- influence on lacZ mRNA transcription [4]: no significant influence
- expression levels of whole proteins ([5]; SDS-PAGE, all three stop codon constructs): decreased expression levels of whole proteins
- degree of inhibition of lacZ expression, UAG stop codon versus other constructs ([5]; immunoblot anti-LacZ, UAG recognized only by PrfA): considerably stronger inhibition
- cell growth in the presence of apidaecin upon PrfB overexpression (PrfB): did not promote cell growth
- inhibition of β-galactosidase-mediated chromogenesis [6]: almost completely inhibited
- β-galactosidase protein synthesis [7]: considerably diminished

Compound: L18dL apidaecin 1b
- antimicrobial effect against E. coli (E. coli [3]; data not shown): no antimicrobial effect

Compound: COc1cc(Cc2cnc(N)nc2N)cc(OC)c1OC [trimethoprim]
- sensitivity of E. coli upon overexpression of FolA [8]: reduced the sensitivity

Compound: L17D-L mutant of apidaecin Ho + (GKPRPQQVPPRPPHPR[dL])
- antibacterial activity toward E. coli compared to wild type peptide (E. coli [9]): 0.1 fold

Compound: Oc1cc(Cl)ccc1Oc1ccc(Cl)cc1Cl [triclosan]
- sensitivity of E. coli upon overexpression of FabI [10]: reduced the sensitivity
